Assay results from PMC7596534, “Bacterial inducible expression of plant cell wall-binding protein YesO through conflict between Glycine max and saprophytic Bacillus subtilis” (Scientific Reports, 2020).

Target: T1, YesO (Bacillus subtilis, UniProt O31518)
T1 construct: primer-encoded N-terminus MTLRIAWWG, native stop codon, no tag apparent
Experiment: X-ray crystallography of the complex, […] Å
Assay type: binding
Settings: crystallised with 1 mM oligo-RG-I (mostly disaccharide, trisaccharide seen in density); Tris-HCl pH 8.5, 20 C; cleft between N- and C-domains

T1 sequence (O31518 34-427): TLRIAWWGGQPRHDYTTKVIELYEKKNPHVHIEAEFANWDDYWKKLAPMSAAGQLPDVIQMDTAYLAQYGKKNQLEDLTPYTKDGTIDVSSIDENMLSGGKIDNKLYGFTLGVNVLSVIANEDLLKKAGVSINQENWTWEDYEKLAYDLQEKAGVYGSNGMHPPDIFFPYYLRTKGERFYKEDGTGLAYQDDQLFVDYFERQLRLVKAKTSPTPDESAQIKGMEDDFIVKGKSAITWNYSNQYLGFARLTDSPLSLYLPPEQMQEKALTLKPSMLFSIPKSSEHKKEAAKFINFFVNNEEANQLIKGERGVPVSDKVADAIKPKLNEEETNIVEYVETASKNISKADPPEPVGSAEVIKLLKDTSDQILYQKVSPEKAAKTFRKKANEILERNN

`C[C@@H]1OC(O)[C@H](O[C@H]2OC(C(=O)O)=C[C@H](O)[C@H]2O)[C@H](O)[C@H]1O[C@@H]1O[C@H](CO)[C@H](O)[C@H](O)[C@H]1O` (stereo partly shown) [ΔGalUA-Rha-Gal] was tested. Which “X-ray crystallography of the complex, 1.58 Å” value did it give?
Its value is “X-ray crystallography of YesO/oligo-RG-I indicated an interaction between YesO and the trisaccharide, ΔGalUA-Rha-Gal”.
